Experimental data from patent US20020169111A1, “Reversal of multidrug resistance in human colon carcinoma cells” (American Cyanamid Comany, priority 1998, published 2002).
Like-named read-outs stand apart in the source and are kept apart here.

Tests used:
MCF/MX cells = assay: Resistance of MCF/MX cells to camptothecins; assay type: cell-based
S1 cells [1] = test system: S1 cells
Protocol: (§7) Cell-associated radioactivity was measured at the indicated times. Values are mean percentage of drug remaining (triplicate determinations) ± standard deviation.
(§8) After 1 hour, cells were prepared for analysis by scintillation counting. Values shown are mean percentage of drug remaining (triplicate determinations) ± standard deviation.

S1-M1-3.2 cells [2] = test system: S1-M1-3.2 cells
Protocol: as §7, §8

S1-B1-20 cells [3] = test system: S1-B1-20 cells
Protocol: as §7, §8

S1-M1-3.2 cells [4] = assay: Cytotoxicity of antitumor agents, 3-day SRB assay, mitoxantrone-selected cells; assay type: cell-based, human; details: relative to S1; 2-7 independent experiments
Protocol: Cells were cultured for three days in the presence of the antitumor agent (triplicate points per dose). Following a 3-day growth period, cells were fixed in 10% trichloroacetic acid (TCA) for 1 hour, washed extensively with water, and cell-associated protein was stained using 0.1% sulforhodamine B (SRB), a protein binding reagent [Rubinstein et al., Journal of the National Cancer Institute 82, 1113-1118 (1990) and Skehan et al., Journal of the National Cancer Institute 82, 1107-1112 (1990)]. Excess reagent was removed by washing plates in 5% acetic acid, the dye was solubilized in 10 mM Tris base, and absorbance determined in a UV Max spectrophotometer (Molecular Devices, Menlo Park, Calif.) at 540 nm. Cell survival was estimated relative to control wells (no drugs). EC50 values (μM) were estimated from cytotoxicity curves. For S1, the values shown [mean ±SE (number of independent observations)] are taken from Zhang et al., “P-Glycoprotein Mediates Profound Resistance to Bisantrene,” Oncol. Res., 6:291-301, 1994. Values for S1-M1-3.2 are compiled from 2-7 independent experiments.

MCF-7 cells = assay type: cell-based, human; details: 1 μM daunorubicin, 1 hour retention phase
Protocol: (§1) All incubations were carried out in the absence or presence of FTC (1 or 5 μM).

MCF-7/BCRP cells [5] = assay type: cell-based, human
Protocol: as §1

S1 cells [6] = assay: Drug accumulation analysis with [14C] drug; assay type: cell-based, human; details: [14C] drug, 90 minutes at 37° C.
Protocol: (§2) To determine the mechanism of resistance, drug resistant and sensitive cells were incubated with radioactive analogues of antitumor agents and cell-associated radioactivity was measured by scintillation counting. Alternatively, surrogates of chemotherapeutic drugs may be used. The surrogate has no antitumor activity itself but interacts with the cancer cell proteins such as P-gp or MRP in a similar manner as an anticancer drug. The surrogate chemotherapeutic drug would have a property such as fluorescence which is useful for determining the drug resistance mechanisms such as efflux.
(§3) Cells were plated in 60 mm dishes (1×10^6 cells per dish) or in 24 well clusters (2 ×10^5 cells per well) and allowed to grow for 1-2 days. […] Drugs used were [^14C]-mitoxantrone (Amersham, 1 or 5 μM; specific activity 66 mCi/mmol) or [^14C]-doxorubicin (Amersham, 0.5 or 3 μM; specific activity 50-62 mCi/mmol ). […] Unbound drug was removed by washing twice in ice-cold phosphate buffered saline (PBS), cells were solubilized in 2 N NaOH at 37° C. for 1-2 hours, and analyzed by scintillation counting. Results were normalized to cell protein content measured by a Lowry assay.
(§4) The cells were then washed, solubilized, and counted in a scintillation counter. Values are mean disintegration per minute per μg protein of triplicate determinations ± standard deviation.

S1-B1-20 cells [7] = assay: Drug accumulation analysis with [14C] drug; assay type: cell-based, human; details: [14C] drug, 90 minutes at 37° C.
Protocol: as §2, §3, §4

S1-M1-3.2 cells [8] = assay: Drug accumulation analysis with [14C] drug; assay type: cell-based, human; details: for Drug Accumulation, no FTC: S1-M1-3.2 cells, [14C] drug, 90 minutes at 37° C.; for drug accumulated compared with the parental cells: S1-M1-3.2 versus S1, no FTC
Protocol: as §2, §3, §4

S1-M1-3.2 cells [9] = assay: Dose modifying factor of FTC (SRB, EC50 ratio); assay type: cell-based, human; details: S1-M1 versus S1, no reversal agent
Protocol: (§5) Cell survival was estimated after 3 days using the SRB assay. Cell survival was determined by the SRB assay and EC50 values were determined from toxicity curves. The dose modifying factor (DMF) is the ratio of EC50 values obtained in the absence and presence of reversal agent. Maximum DMF values (shown in parentheses) is the ratio of EC50 values of resistant and sensitive cells in the absence of the reversal agent. This value is obtained when resistance is reversed completely, and is the equivalent of the relative resistance.

MCF 7/mtxR cells = assay type: cell-based, human
Protocol: as §5
(§6) In order to determine the utility of FTC as a reversal agent in other multidrug resistant cell lines, FTC was tested in two breast cancer cell lines which show a multidrug resistant phenotype with no overexpression of P-gp or MRP.

HL-60/AR cells = assay type: cell-based
Protocol: as §5

MCF-7/BCRP cells [10] = assay: Dose modifying factor of FTC in BCRP-transfected cells; assay type: cell-based, human; details: MCF-7/BCRP versus MCF-7, no reversal agent
Protocol: Cell survival was estimated after 3 days using the SRB assay, and EC50 values were determined from cytotoxicity curves.

MCF 7/AdVp cells = assay type: cell-based, human
Protocol: as §5, §6

[11] = 1 hour efflux with energy depletor, growth medium = 100

SMILES: CC[C@@]1(O)C(=O)OCc2c1cc1n(c2=O)Cc2cc3c(N)cccc3nc2-1 [9-amino camptothecin]
- resistance of MCF/MX cells (MCF/MX cells): 120 fold

SMILES: [N-]=[N+]=[N-].[Na+] [PBS + sodium azide, sodium azide]
- % mitoxantrone remaining in cell line (S1 cells [1]; [11]): 137 ± 14%
- % mitoxantrone remaining in cell line (S1-M1-3.2 cells [2]; [11]): 285 ± 43%
- % mitoxantrone remaining in cell line (S1-B1-20 cells [3]; [11]): 217 ± 6%

SMILES: CC[C@@]1(O)C(=O)OCc2c1cc1n(c2=O)Cc2cc3ccccc3nc2-1 [camptothecin]
- S1-M1-3.2 (relative resistance) (S1-M1-3.2 cells [4]): 2
- resistance of MCF/MX cells (MCF/MX cells): 3.2 fold

SMILES: COc1cccc2c1C(=O)c1c(O)c3c(c(O)c1C2=O)C[C@@](O)(C(C)=O)C[C@@H]3O[C@H]1C[C@H](N)[C@H](O)[C@H](C)O1 [daunorubicin, reference compound]
- daunorubicin retention, Channel Number (fluorescence units), No FTC (MCF-7 cells): 15.2 ± 0.39 fluorescence units
- daunorubicin retention, Channel Number (fluorescence units), No FTC (MCF-7/BCRP cells [5]): 6.8 ± 0.33 fluorescence units

SMILES: COc1cccc2c1C(=O)c1c(O)c3c(c(O)c1C2=O)C[C@@](O)(C(=O)CO)C[C@@H]3O[C@H]1C[C@H](N)[C@H](O)[C@H](C)O1 [doxorubicin, reference compound]
- Drug Accumulation, no FTC (S1 cells [6]): 114 ± 11 DPM/μg protein
- Drug Accumulation, no FTC (S1-B1-20 cells [7]): 23 ± 1 DPM/μg protein
- Drug Accumulation, no FTC (S1-M1-3.2 cells [8]): 19 ± 3 DPM/μg protein
- drug accumulated compared with the parental cells (S1-M1-3.2 cells [8]): 17%
- [^14C] doxorubicin retention, No FTC (MCF-7/BCRP cells [5]; MCF-7/BCRP, 1 μM [14C]-doxorubicin, 1 hour retention phase): 5.4 ± 0.48 DPM per microgram protein

SMILES: O=C1c2c(O)ccc(O)c2C(=O)c2c(NCCNCCO)ccc(NCCNCCO)c21 [mitoxantrone]
- S1-M1-3.2 (relative resistance) (S1-M1-3.2 cells [4]): 1435
- Drug Accumulation, no FTC (S1 cells [6]): 2430 ± 252 DPM/μg protein
- Drug Accumulation, no FTC (S1-B1-20 cells [7]): 1086 ± 100 DPM/μg protein
- Drug Accumulation, no FTC (S1-M1-3.2 cells [8]): 996 ± 57 DPM/μg protein
- drug accumulated compared with the parental cells (S1-M1-3.2 cells [8]): 41%
- Maximum DMF (in parentheses; relative resistance to the antitumor agent) (S1-M1-3.2 cells [9]): 1435
- Maximum DMF (in parentheses; relative resistance to the antitumor agent) (MCF 7/mtxR cells): 114 (2090)
- Maximum DMF (in parentheses; relative resistance to the antitumor agent) (HL-60/AR cells): 3.3 (53)
- Maximum DMF (in parentheses; relative resistance to the antitumor agent) (MCF-7/BCRP cells [10]): 35.1
- % mitoxantrone remaining over time (hours) (S1 cells [1]; 0 h): 100 ± 6%
- % mitoxantrone remaining over time (hours) (S1 cells [1]; 0.5 h): 99 ± 17%
- % mitoxantrone remaining over time (hours) (S1 cells [1]; 1 h): 101 ± 3%
- % mitoxantrone remaining over time (hours) (S1 cells [1]; 2 h): 100 ± 11%
- % mitoxantrone remaining over time (hours) (S1 cells [1]; 4 h): 95 ± 13%
- % mitoxantrone remaining over time (hours) (S1-M1-3.2 cells [2]; 0 h): 100 ± 2%
- % mitoxantrone remaining over time (hours) (S1-M1-3.2 cells [2]; 0.5 h): 51 ± 6%
- % mitoxantrone remaining over time (hours) (S1-M1-3.2 cells [2]; 1 h): 44 ± 1%
- % mitoxantrone remaining over time (hours) (S1-M1-3.2 cells [2]; 2 h): 45 ± 3%
- % mitoxantrone remaining over time (hours) (S1-M1-3.2 cells [2]; 4 h): 31 ± 2%
- % mitoxantrone remaining over time (hours) (S1-B1-20 cells [3]; 0 h): 100 ± 5%
- % mitoxantrone remaining over time (hours) (S1-B1-20 cells [3]; 0.5 h): 58 ± 4%
- % mitoxantrone remaining over time (hours) (S1-B1-20 cells [3]; 1 h): 45 ± 10%
- % mitoxantrone remaining over time (hours) (S1-B1-20 cells [3]; 2 h): 41 ± 3%
- % mitoxantrone remaining over time (hours) (S1-B1-20 cells [3]; 4 h): 39 ± 3%

SMILES: CC(=O)O[C@H]1C(=O)[C@@]2(C)[C@H]([C@H](OC(=O)c3ccccc3)[C@]3(O)C[C@H](OC(=O)[C@H](O)[C@@H](NC(=O)c4ccccc4)c4ccccc4)C(C)=C1C3(C)C)[C@]1(OC(C)=O)CO[C@@H]1C[C@@H]2O [paclitaxel, reference compound]
- S1-M1-3.2 (relative resistance) (S1-M1-3.2 cells [4]): 6
- Maximum DMF (in parentheses; relative resistance to the antitumor agent) (S1-M1-3.2 cells [9]): 6
- Maximum DMF (in parentheses; relative resistance to the antitumor agent) (MCF 7/AdVp cells): 0.7 (10.7)
- Maximum DMF (in parentheses; relative resistance to the antitumor agent) (MCF 7/mtxR cells): 1.1 (2.0)
- Maximum DMF (in parentheses; relative resistance to the antitumor agent) (HL-60/AR cells): 2.6 (5.1)
- Maximum DMF (in parentheses; relative resistance to the antitumor agent) (MCF-7/BCRP cells [10]): 2.7

SMILES: CC[C@@]1(O)C(=O)OCc2c1cc1n(c2=O)Cc2cc3c(CN(C)C)c(O)ccc3nc2-1 [topotecan, reference compound]
- S1-M1-3.2 (relative resistance) (S1-M1-3.2 cells [4]): 41
- Maximum DMF (in parentheses; relative resistance to the antitumor agent) (S1-M1-3.2 cells [9]): 41
- Maximum DMF (in parentheses; relative resistance to the antitumor agent) (MCF-7/BCRP cells [10]): 3.3
